12 molecules from patent publication US10681909B2, “Herbicidal triazoles” (FMC Corporation, priority 2014, dated 2020) can be followed below.

One assay has as its system wheat. Kind of assay: Test A preemergence. The class given is in vivo, Triticum aestivum. Conditions: Triticum aestivum, pre-emergence, 240 h, 0 to 100 scale (0 no effect, 100 complete control), read-out: Plant response rating, Wheat; for plant injury at 125 g/ha: 125 g ai/ha; for plant injury at 500 g/ha: 500 g ai/ha, approx. 10 d. An outline of the steps: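 Test chemicals in a non-phytotoxic solvent with surfactant were applied as a directed soil spray preemergence to seeds sown in loam/sand. Postemergence sprays went to plants 2–10 cm tall at the one- to two-leaf stage. A dash means no result.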

For a further assay, the system named is nutsedge, yellow. The assay can be described thus: Test C preemergence. The class given is in vivo, Cyperus esculentus. Conditions: for Plant response rating (scale of 0 to 100 where 0 is no effect and 100 is complete control): Nutsedge, Yellow, preemergence; for Nutsedge, Yellow plant response rating (0 to 100): Preemergence, visual rating after 13 to 15 d. An excerpt: (§1) Seeds of plant species selected from blackgrass (Alopecurus myosuroides), ryegrass, Italian (Italian ryegrass, Lolium multiflorum), wheat (winter wheat, Triticum aestivum), galium (catchweed bedstraw, Galium aparine), corn (Zea mays), crabgrass, large (large crabgrass, Digitaria sanguinalis), foxtail, giant, (giant foxtail, Setaria faberii), johnsongrass (Sorghum halepense), lambsquarters (Chenopodium album), morningglory (Ipomoea coccinea), nutsedge, yellow (yellow nutsedge, Cyperus esculentus), pigweed (Amaranthus retroflexus), ragweed (common ragweed, Ambrosia elatior), soybean (Glycine max), barnyardgrass (Echinochloa crus-galli), oilseed rape (Brassica napus), waterhemp (common waterhemp, Amaranthus rudis), and velvetleaf (Abutilon theophrasti) were planted into a blend of loam soil and sand and treated preemergence with test chemicals formulated in a non-phytotoxic solvent mixture which included a surfactant. At the same time, plants selected from these crop and weed species and also chickweed (common chickweed, Stellaria media), oat, wild (wild oat, Avena fatua), and kochia (Kochia scoparia), were planted in pots containing Sunshine Redi-Earth® planting medium comprising spaghnum peat moss, vermiculite, starter nutrients and dolomitic limestone and treated with postemergence applications of test chemicals formulated in the same manner. Plants ranged in height from 2 to 18 cm (1- to 4-leaf stage) for postemergence treatments. […] A dash (-) response means no test result.

The test system of another assay is oilseed rape. Kind of assay: Test C preemergence. The class given is in vivo, Brassica napus. Conditions: for Plant response rating (scale of 0 to 100 where 0 is no effect and 100 is complete control): Oilseed Rape, preemergence; for Oilseed Rape plant response rating (0 to 100): Preemergence, visual rating after 13 to 15 d.
Source text: as §1

The test system of a further assay is kochia. Kind of assay: Test A postemergence. Type of assay: in vivo, Kochia scoparia. Particulars: 0 to 100 scale (0 no effect, 100 complete control), approx. 10 d. From the text:
Seeds of plant species selected from barnyardgrass (Echinochloa crus-galli), crabgrass, large (large crabgrass, Digitaria sanguinalis), kochia (Kochia scoparia), ragweed (common ragweed, Ambrosia elatior), foxtail, giant (giant foxtail, Setaria faberii), morningglory (Ipomoea spp.), pigweed (Amaranthus retroflexus), velvetleaf (Abutilon theophrasti), ryegrass, Italian (Italian ryegrass, Lolium multiflorum), wheat (Triticum aestivum), and corn (Zea mays) were planted into a blend of loam soil and sand and treated preemergence with a directed soil spray using test chemicals formulated in a non-phytotoxic solvent mixture which included a surfactant.
At the same time, plants selected from these crop and weed species and also blackgrass (Alopecurus myosuroides), and galium (catchweed bedstraw, Galium aparine), were planted in pots containing the same blend of loam soil and sand and treated with postemergence applications of test chemicals formulated in the same manner. Plants ranged in height from 2 to 10 cm and were in the one- to two-leaf stage for the postemergence treatment. Treated plants and untreated controls were maintained in a greenhouse for approximately 10 d, after which time all treated plants were compared to untreated controls and visually evaluated for injury. Plant response ratings, summarized in Table A, are based on a 0 to 100 scale where 0 is no effect and 100 is complete control. A dash (-) response means no test result.

As for `Cn1nc(-c2ccc(F)cc2)nc1C(O)c1ccnc(C(F)(F)F)c1` (stereo not drawn) [Compound 14, α-[3-(4-fluorophenyl)-1-methyl-1H-1,2,4-triazol-5-yl]-2-(trifluoromethyl)-4-pyridinemethanol], in the assay on wheat, the plant injury at 125 g/ha amounted to 0% and the plant injury at 500 g/ha was 0%.
On to `CCn1nc(-c2ccc(F)cc2)nc1C(=O)c1ccnc(C(F)(F)F)c1` [Compound 19, [1-ethyl-3-(4-fluorophenyl)-1H-1,2,4-triazol-5-yl][2-(trifluoromethyl)-4-pyridinyl]methanone], for which, in the assay with wheat, the plant injury at 125 g/ha worked out at 0% and the plant injury at 500 g/ha was 0%.
For the molecule `COc1nc(-c2ccc(F)cc2)nn1Cc1ccnc(C(F)(F)F)c1` [Compound 9, 4-[[3-(4-fluorophenyl)-5-methoxy-1H-1,2,4-triazol-1-yl]methyl]-2-(trifluoromethyl)pyridine], the “Plant response rating (scale of 0 to 100 where 0 is no effect and 100 is complete control)” value in the assay on nutsedge, yellow (125 g ai/ha) amounted to 35; in the assay with nutsedge, yellow (250 g ai/ha), 50; with oilseed rape (125 g ai/ha) it was 95; in the assay with oilseed rape (250 g ai/ha) it was 100. Moreover, the “Nutsedge, Yellow plant response rating (0 to 100)” value (“Nutsedge … (0 to 100)” below) with nutsedge, yellow (31 g ai/ha) came to 10; in the assay with nutsedge, yellow (62 g ai/ha), 5. Also, the plant injury at 125 g/ha with wheat worked out at 0%. The plant injury at 500 g/ha with wheat amounted to 50%. For the same molecule, the “Oilseed Rape plant response rating (0 to 100)” value with oilseed rape (31 g ai/ha) is recorded as 0; in the assay with oilseed rape (62 g ai/ha), 60.
Take `CS(=O)(=O)c1nc(-c2ccc(F)cc2)nn1Cc1ccnc(C(F)(F)F)c1` [Compound 29, 4-[[3-(4-fluorophenyl)-5-(methylsulfonyl)-1H-1,2,4-triazole-1-yl]methyl]-2-(trifluoromethyl)pyridine]: in the assay on wheat, the plant injury at 125 g/ha came out at 0% and the plant injury at 500 g/ha was 0%.
Turning to `CCCc1nc(-c2ccc(F)cc2)nn1Cc1ccnc(C(F)(F)F)c1` [Compound 6, 4-[[3-(4-fluorophenyl)-5-propyl-1H-1,2,4-triazol-1-yl]methyl]-2-(trifluoromethyl)pyridine], the “Plant response rating (scale of 0 to 100 where 0 is no effect and 100 is complete control)” value with nutsedge, yellow (125 g ai/ha) is 35; with nutsedge, yellow (250 g ai/ha) it was 50; in the assay with oilseed rape (125 g ai/ha), 100; in the assay with oilseed rape (250 g ai/ha), 100. Also, the “Nutsedge … (0 to 100)” value in the assay with nutsedge, yellow (31 g ai/ha) was 25; in the assay with nutsedge, yellow (62 g ai/ha), 30. Also, in the assay with wheat, the plant injury at 125 g/ha amounted to 10%. The plant injury at 500 g/ha with wheat is 60%. The “Oilseed Rape plant response rating (0 to 100)” value in the assay on oilseed rape (31 g ai/ha) turned out to be 70; with oilseed rape (62 g ai/ha) it was 100.
As for `COc1nc(-c2ccccc2)nn1Cc1ccnc(C(F)(F)F)c1` [Compound 32], the “Plant response rating (scale of 0 to 100 where 0 is no effect and 100 is complete control)” value with nutsedge, yellow (125 g ai/ha) stood at 5; in the assay on nutsedge, yellow (250 g ai/ha), 20; in the assay on oilseed rape (125 g ai/ha), 10; in the assay with oilseed rape (250 g ai/ha) it was 85. The “Nutsedge … (0 to 100)” value stood at 0 in the assay with nutsedge, yellow (31 g ai/ha) and 0 with nutsedge, yellow (62 g ai/ha). Besides, the “Plant response rating, Kochia” value was 80 in the assay on kochia (125 g ai/ha) and 90 with kochia (500 g ai/ha). Moreover, the “Oilseed Rape plant response rating (0 to 100)” value in the assay on oilseed rape (31 g ai/ha) is 5; with oilseed rape (62 g ai/ha), 20.
Take `Cn1nc(-c2ccc(F)cc2)nc1Oc1cccc(C(F)(F)F)c1` [Compound 5, 3-(4-fluorophenyl)-1-methyl-5-[3-(trifluoromethyl)phenoxy]-1H-1,2,4-triazole]: in the assay on wheat, the plant injury at 125 g/ha turned out to be 0% and the plant injury at 500 g/ha turned out to be 0%.
`CCOc1nc(-c2ccc(Cl)cc2)nn1Cc1ccnc(C(F)(F)F)c1` [Compound 26]: the “Plant response rating, Kochia” value in the assay with kochia (31 g ai/ha) turned out to be 80; with kochia (125 g ai/ha), 90.
As for `COc1nc(-c2ccc(C(F)(F)F)cc2)nn1Cc1ccnc(C(F)(F)F)c1` [Compound 25], the “Plant response rating, Kochia” value in the assay with kochia (31 g ai/ha) and in the assay on kochia (125 g ai/ha) was 90 in each case.
Turning to `CCCn1nc(-c2ccc(F)cc2)nc1Cc1ccnc(C(F)(F)F)c1` [Compound 17, 4-[[3-(4-fluorophenyl)-1-propyl-1H-1,2,4-triazol-5-yl]methyl]-2-(trifluoromethyl)pyridine], in the assay on wheat, the plant injury at 125 g/ha was 30% and the plant injury at 500 g/ha turned out to be 70%.
For the molecule `CCn1nc(-c2ccc(F)cc2)nc1C(O)c1ccnc(C(F)(F)F)c1` (stereo not drawn) [Compound 15, α-[1-Ethyl-3-(4-fluorophenyl)-1H-1,2,4-triazol-5-yl]-2-(trifluoromethyl)-4-pyridinemethanol], in the assay with wheat, the plant injury at 125 g/ha stood at 0% and the plant injury at 500 g/ha turned out to be 0%.
Turning to `CCCOc1nc(-c2ccccc2)nn1Cc1ccnc(C(F)(F)F)c1` [Compound 33], the “Plant response rating, Kochia” value with kochia (125 g ai/ha) and in the assay on kochia (500 g ai/ha) was 90 throughout.
